Source: US20240140947A1, “COMPOUND FOR THE TREATMENT OF CANCER” (priority 2022, published 2024)

Assays:
[1] = target: T1, CDK4/Cyclin D1 (Homo sapiens, UniProt P11802); assay: CDK4/Cyclin D1 mobility shift assay; type: biochemical; conditions: geometric mean, 3.5 mM ATP
T1 construct: 2007 E1/2008+PO4
Procedure: The mobility shift assay electrophoretically separates the fluorescently labeled peptides (substrate and phosphorylated product) following the kinase reaction. Both substrate and product are measured and the ratio of these values is used to generate % Conversion of substrate to product by the LabChip EZ Reader.
K, determinations were made from a plot of the fractional velocity as a function of inhibitor concentration fit to the Morrison equation with the enzyme concentration as a variable.

[2] = test system: palbociclib resistant (PalboR) derivatives of MCF7, T47D, and HCC1428; assay: Cell proliferation assay, palbociclib resistant derivatives (range over lines); type: cell-based; conditions: Homo sapiens, read-out: anti-proliferation IC50 values, range over cell lines
Procedure: OVCAR3, MCF7, T47D, HCC1428, NCIH2087, NCIH358 or A549cells were seeded 1-3000 cells/well in 96-well plates in growth media containing 10% FBS and cultured overnight at 37° C. 5% CO2. The following day, compounds were serially diluted from a 10 mM top dose for an 11-point 3-fold dilution curve in DMSO. Compound 1 and PF-06873600 were intermediately diluted 1:200 into growth media prior to diluting 1:5 on cells for final concentration 10 μM to 0.1 nM in 0.1% DMSO on cells. Cells were incubated at 37° C. 5% CO2 for 7 days. CYQUANT Direct Cell Proliferation Assay (Molecular Probes, Eugene, OR) was then performed following manufacturer recommendations to determine the relative viable cell numbers on the Perkin Elmer Envision 2104 Multi Label Reader at 508 nm excitation and 527 nm emission wavelengths. IC50 values were calculated by concentration-response curve fitting utilizing a four-parameter analytical method using GraphPad Prism software.
The effect of Compound 1 on cell proliferation was assessed in multiple ER+ breast cancer cell lines, including parental and palbociclib resistant cell lines.
Similar results were shown with NCIH2087, NCIH358, and A549 NSCLC cell lines ([…].4).

[3] = Rat i.v. pharmacokinetic study; type: in vivo
Procedure: Rat PK studies were done at Pfizer (Groton, CT) or BioDuro Pharmaceutical Product Development Inc. (Shanghai, PRC); Jugular vein-cannulated male Wistar-Hannover rats were purchased from Charles River Laboratories, Inc. (Wilmington, MA) or Vital River (Beijing, China) and were typically 7-10 weeks of age at the time of dosing. During the pharmacokinetic studies all animals were housed individually. Access to food and water was provided ad libitum. Compounds were administered i.v. via the tail vein (n=2 or 3), dosed as a 1 mg/ml solution using standard compatible excipients at 1 mL/kg for a resulting dose of […]. Serial blood samples were collected via the jugular vein cannula at predetermined timepoints after dosing. Animals were monitored for pain or distress throughout the study, with at least daily monitoring during normal husbandry prior to study start. At the completion of the study, animals were euthanized by overdose of inhaled anesthesia followed by exsanguination. […] Plasma samples from the animal PK studies were processed using protein precipitation with acetonitrile: methanol (1:1) containing internal standard verapamil followed by quantitation by LC-MS/MS against a standard curve prepared in blank plasma. Pharmacokinetic parameters were calculated using noncompartmental analysis (Watson v.7.5, Thermo Scientific).

T1 sequence (P11802 whole entry): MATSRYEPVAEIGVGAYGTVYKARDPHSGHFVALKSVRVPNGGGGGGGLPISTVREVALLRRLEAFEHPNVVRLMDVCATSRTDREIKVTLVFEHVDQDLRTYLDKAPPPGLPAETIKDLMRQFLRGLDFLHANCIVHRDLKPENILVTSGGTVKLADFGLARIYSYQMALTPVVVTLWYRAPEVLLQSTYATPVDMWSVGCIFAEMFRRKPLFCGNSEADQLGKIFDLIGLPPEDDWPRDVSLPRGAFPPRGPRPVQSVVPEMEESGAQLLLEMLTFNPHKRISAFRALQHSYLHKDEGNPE
T1 sequence (P24385 whole entry partner): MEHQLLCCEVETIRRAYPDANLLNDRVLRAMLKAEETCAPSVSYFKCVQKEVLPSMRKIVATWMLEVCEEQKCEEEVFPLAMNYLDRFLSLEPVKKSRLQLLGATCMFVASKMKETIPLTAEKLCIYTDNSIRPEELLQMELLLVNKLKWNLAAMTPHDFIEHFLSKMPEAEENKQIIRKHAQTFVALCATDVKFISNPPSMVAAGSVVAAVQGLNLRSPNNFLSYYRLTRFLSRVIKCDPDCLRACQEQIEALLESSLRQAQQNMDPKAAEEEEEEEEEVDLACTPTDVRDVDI

With `C[C@@]1(O)CCC[C@H]1n1c(=O)c(CC(F)F)cc2cnc(NC3CCN(S(N)(=O)=O)CC3)nc21` [Compound 1, 4-({6-(2,2-difluoroethyl)-8-[(1R,2R)-2-hydroxy-2-methylcyclopentyl]-7-oxo-7,8-dihydropyrido[2,3-d]pyrimidin-2-yl}amino)piperidine-1-sulfonamide] the Ki [1] was 0.79 nM, the IC50 [2] was 37.3 to 65.7 nM and the “Rat Vdss unbound: (Rat plasma Vdss/rat plasma fu)” value [3] was 10.8 L/kg. The Vd ([3]; rat, plasma, iv, 2 mg/kg, male Wistar-Hannover rats, read-out: Rat Vdss) was 1.5 L/kg.
